Experimental data as given in ChEMBL document CHEMBL1152576, “E-Combretastatin and E-resveratrol structural modifications: antimicrobial and cancer cell growth inhibitory beta-E-nitrostyrenes” (Bioorg Med Chem, 2009).
pIC50: −log10 of the molar value. ≈ marks a conversion by molar mass, not a printed value. Calls of active or inactive are those of the source. No cut-off for these calls is given here.

Legend:
[1] = tested on: P388; assay: Cytotoxicity against mouse P388 cells after 48 hrs by sulforhodamine B assay; type: functional; conditions: P388, 48 h, read-out: ED50 (the source's name)
[2] = tested on: OVCAR-3; assay: Cytotoxicity against human OVCAR-3 cells after 48 hrs by sulforhodamine B assay; type: functional
[3] = tested on: KM-20L2; assay: Cytotoxicity against human KM20L2 cells after 48 hrs by sulforhodamine B assay; type: functional
[4] = tested on: SF-295; assay: Cytotoxicity against human SF295 cells after 48 hrs by sulforhodamine B assay; type: functional
[5] = Inhibition of tubulin polymerization
[6] = tested on: BXPC-3; assay: Cytotoxicity against human BxPC3 cells after 48 hrs by sulforhodamine B assay; type: functional
[7] = tested on: A498; assay: Cytotoxicity against human A498 cells after 48 hrs by sulforhodamine B assay; type: functional
[8] = tested on: SK-MEL-5; assay: Cytotoxicity against human SK-MEL-5 cells after 48 hrs by sulforhodamine B assay; type: functional
[9] = tested on: DU-145; assay: Cytotoxicity against human DU145 cells after 48 hrs by sulforhodamine B assay; type: functional
[10] = tested on: MCF7; assay: Cytotoxicity against human MCF7 cells after 48 hrs by sulforhodamine B assay; type: functional
[11] = tested on: NCI-H460; assay: Cytotoxicity against human NCI-H460 cells after 48 hrs by sulforhodamine B assay; type: functional
[12] = tested on: Cryptococcus neoformans; assay: Antimicrobial activity against Cryptococcus neoformans ATCC 90112 assessed clear zone in inhibition per disk by CLSI disk diffusion susceptibility assay; type: functional
[13] = tested on: SF-268; assay: Cytotoxicity against human SF268 cells after 48 hrs by sulforhodamine B assay; type: functional
[14] = tested on: Stenotrophomonas maltophilia; assay: Antimicrobial activity against Stenotrophomonas maltophilia ATCC 13637 assessed clear zone in inhibition per disk by CLSI disk diffusion susceptibility assay; type: functional
[15] = tested on: Micrococcus luteus; assay: Antimicrobial activity against Micrococcus luteus Presque Isle 456 assessed clear zone in inhibition per disk by CLSI disk diffusion susceptibility assay; type: functional
[16] = tested on: Neisseria gonorrhoeae; assay: Antimicrobial activity against Neisseria gonorrhoeae ATCC 49226 assessed clear zone of inhibition measured per disk by CLSI disk diffusion susceptibility assay; type: functional
[17] = tested on: Streptococcus pneumoniae; assay: Antimicrobial activity against Streptococcus pneumoniae ATCC 6303 assessed clear zone in inhibition per disk by CLSI disk diffusion susceptibility assay; type: functional
[18] = tested on: Escherichia coli; assay: Antimicrobial activity against Escherichia coli ATCC 25922 assessed clear zone in inhibition per disk by CLSI disk diffusion susceptibility assay; type: functional
[19] = tested on: Enterobacter cloacae; assay: Antimicrobial activity against Enterobacter cloacae ATCC 13047 assessed clear zone in inhibition per disk by CLSI disk diffusion susceptibility assay; type: functional
[20] = tested on: Candida albicans; assay: Antimicrobial activity against Candida albicans ATCC 90028 assessed clear zone in inhibition per disk by CLSI disk diffusion susceptibility assay; type: functional
[21] = tested on: Staphylococcus aureus; assay: Antimicrobial activity against Staphylococcus aureus ATCC 29213 assessed clear zone in inhibition per disk by CLSI disk diffusion susceptibility assay; type: functional
[22] = tested on: Enterococcus faecalis; assay: Antimicrobial activity against Enterococcus faecalis ATCC 29212 assessed clear zone in inhibition per disk by CLSI disk diffusion susceptibility assay; type: functional

| SMILES | EC50 [1] [µg/mL] | GI50 [2] | GI50 ([3]; KM-20L2, 48 h) [µg/mL] | GI50 [4] | pIC50 [5] | GI50 ([6]; BXPC-3, 48 h) [µg/mL] | GI50 [7] | GI50 [8] | GI50 ([9]; DU-145, 48 h) [µg/mL] | GI50 ([11]; NCI-H460, 48 h) [µg/mL] | MIC [12] [µg] | MIC [14] [µg] | MIC [15] [µg] | MIC [16] [µg] | MIC [17] [µg] | MIC [18] [µg] | MIC [19] [µg] | MIC [20] [µg] | MIC [21] [µg] | MIC [22] [µg] | further results |
| --- | --- | --- | --- | --- | --- | --- | --- | --- | --- | --- | --- | --- | --- | --- | --- | --- | --- | --- | --- | --- | --- |
| COc1ccc(/C=C\c2cc(OC)c(OC)c(OC)c2)cc1O [COMBRETASTATIN A4] | 0.03 (≈ 0.0948 µM) | inactive | 0.34 (≈ 1.07 µM) | inactive | 5.68 | 0.39 (≈ 1.23 µM) | inactive | inactive | 0.0008 (≈ 0.00253 µM) | 0.0006 (≈ 0.0019 µM) |  |  |  |  |  |  |  |  |  |  | GI50 [10]: inactive |
| CCOc1ccc(/C=C/[N+](=O)[O-])cc1 | 3.8 (≈ 19.7 µM) | inactive | 2.4 (≈ 12.4 µM) | inactive | 5.26 | 1.2 (≈ 6.21 µM) | inactive | inactive | 2.2 (≈ 11.4 µM) | 1.9 (≈ 9.83 µM) | 1.56 | >100 | 50 | 0.78 | 12.5 | >100 | >100 | 3.12 | 25 | 50 | GI50 ([13]; SF-268, 48 h): 1.8 µg/mL (≈ 9.32 µM); GI50 ([10]; MCF7, 48 h): 1.1 µg/mL (≈ 5.69 µM) |
| COc1ccc(/C=C/[N+](=O)[O-])cc1OP(=O)(OCc1ccccc1)OCc1ccccc1 | 2.2 (≈ 4.83 µM) |  | > 10 |  | 5.00 | > 10 | inactive | inactive | > 10 | > 10 | >100 | >100 | 3.12 | 0.78 | >100 | >100 | >100 | >100 | 3.12 | 6.25 | GI50 ([2]; OVCAR-3, 48 h): > 10 µg/mL; GI50 [13]: inactive; GI50 ([4]; SF-295, 48 h): > 10 µg/mL; GI50 [10]: inactive |
| COc1cc(/C=C/[N+](=O)[O-])cc(O[Si](C)(C)C(C)(C)C)c1OC | 32.6 (≈ 96 µM) |  | > 10 |  | 4.92 | > 10 | inactive | inactive | > 10 | > 10 | 25 | >100 | 1.56 | 3.12 | 3.12 | >100 | >100 | >100 | 3.12 | 3.12 | GI50 ([2]; OVCAR-3, 48 h): > 10 µg/mL; GI50 [13]: inactive; GI50 ([4]; SF-295, 48 h): > 10 µg/mL; GI50 [10]: inactive |
| CC(=O)Nc1ccc(/C=C/[N+](=O)[O-])cc1 | 6.2 (≈ 30.1 µM) |  | 1.1 (≈ 5.33 µM) |  | 4.96 |  |  |  |  | 0.7 (≈ 3.39 µM) | <6.25 | >100 | >100 | <6.25 | <6.25 | >100 | >100 | 6.25 | <6.25 | >100 | GI50 ([2]; OVCAR-3, 48 h): 0.65 µg/mL (≈ 3.15 µM); GI50 [13]: inactive; GI50 ([4]; SF-295, 48 h): 1.4 µg/mL (≈ 6.79 µM); GI50 [6]: inactive; GI50 ([7]; A498, 48 h): 0.96 µg/mL (≈ 4.66 µM); GI50 ([8]; SK-MEL-5, 48 h): 0.34 µg/mL (≈ 1.65 µM); GI50 [9]: inactive; GI50 [10]: inactive |
| COc1cc(/C=C/[N+](=O)[O-])c(OC)c(OC)c1OC | 1.3 (≈ 4.83 µM) | inactive |  | inactive | 5.27 |  | inactive | inactive |  |  | 0.78 | 25 | 1.56 | <0.78 | 6.25 | 12.5 | >100 | 0.78 | <0.78 | 3.12 | GI50 [13]: inactive; GI50 [3]: inactive; GI50 [6]: inactive; GI50 [9]: inactive; GI50 [10]: inactive; GI50 [11]: inactive |
| Oc1ccc(/C=C\c2cc(O)cc(O)c2)cc1 [CIS-RESVERATROL] |  | inactive | 22 (≈ 96.4 µM) | inactive |  |  | inactive | inactive |  |  |  |  |  |  |  |  |  |  |  |  | GI50 ([13]; SF-268, 48 h): 5 µg/mL (≈ 21.9 µM) |
| COc1ccc(/C=C/c2cc(OC)c(OC)c(OC)c2)cc1O [E-COMBRETASTATIN A-4] | 0.28 (≈ 0.885 µM) | inactive |  | inactive | 4.48 | 3.9 (≈ 12.3 µM) | inactive | inactive | 0.037 (≈ 0.117 µM) | 0.038 (≈ 0.12 µM) |  |  |  |  |  |  |  |  |  |  | GI50 [13]: inactive; GI50 [3]: inactive; GI50 [10]: inactive |
| O=[N+]([O-])/C=C/c1ccc(OP(=O)([O-])[O-])cc1.[Na+].[Na+] | 47.8 | inactive | > 10 | inactive | < 4.40 | > 10 | inactive | inactive | 57.8 | > 10 | >100 | >100 | >100 | >100 | >100 | >100 | >100 | >100 | >100 | >100 | GI50 ([13]; SF-268, 48 h): > 10 µg/mL; GI50 ([10]; MCF7, 48 h): > 10 µg/mL |
| Oc1ccc(/C=C/c2cc(O)cc(O)c2)cc1 [RESVERATROL] |  | inactive |  | inactive | < 4.40 |  | inactive | inactive |  |  |  |  |  |  |  |  |  |  |  |  |  |
| O=[N+]([O-])/C=C/c1ccc(OP(=O)(OCc2ccccc2)OCc2ccccc2)cc1 | 7 (≈ 16.5 µM) | inactive | > 10 | inactive | 5.00 | > 10 | inactive | inactive | > 10 | > 10 | 25 | >100 | 6.25 | 0.78 | >100 | >100 | >100 | >100 | 3.12 | 6.25 | GI50 ([13]; SF-268, 48 h): > 10 µg/mL; GI50 ([10]; MCF7, 48 h): > 10 µg/mL |
| COc1cc(OC)c(/C=C/[N+](=O)[O-])c(OC)c1 | 14 (≈ 58.5 µM) |  | 0.38 (≈ 1.59 µM) |  |  |  |  |  |  | 0.32 (≈ 1.34 µM) | >100 | >100 | >100 | >100 | >100 | >100 | >100 | >100 | >100 | >100 | GI50 ([2]; OVCAR-3, 48 h): 0.42 µg/mL (≈ 1.76 µM); GI50 [13]: inactive; GI50 ([4]; SF-295, 48 h): 0.45 µg/mL (≈ 1.88 µM); GI50 [6]: inactive; GI50 ([7]; A498, 48 h): 0.36 µg/mL (≈ 1.5 µM); GI50 ([8]; SK-MEL-5, 48 h): 0.61 µg/mL (≈ 2.55 µM); GI50 [9]: inactive; GI50 [10]: inactive |
| COc1ccc(/C=C/[N+](=O)[O-])cc1OP(=O)([O-])[O-].[Na+].[Na+] | 5.7 | inactive | > 10 | inactive | 4.74 | > 10 | inactive | inactive | 4 | 5.8 | >100 | >100 | >100 | 50 | >100 | >100 | >100 | >100 | >100 | >100 | GI50 ([13]; SF-268, 48 h): 4.2 µg/mL; GI50 ([10]; MCF7, 48 h): 4.3 µg/mL |
